What all share (test): NCI-60 cell line screen, 48 h
The test system of experiment [1] is SR leukemia.
Experiment [2] concerns BT-549 breast.
Experiment [3] relates to HL-60(TB) leukemia.
In experiment [4] the test system is COLO 205 colon.
In experiment [5] the test system is SK-OV-3 ovarian.
Experiment [6] has as its system SF-295 CNS.
Experiment [7] concerns HOP-62 NSCLC.
The test system of experiment [8] is MDA-MB-231 breast.
In experiment [9] the test system is CCRF-CEM leukemia.
Experiment [10] relates to HT29 colon.

The structures appear in SMILES notation.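 Each compound was tested at five concentrations against cells in 96-well plates for 48 hours. Here, GI50 denotes the concentration required for 50% inhibition of growth. TGI: concentration producing complete growth inhibition.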

Consider `COC(=O)[C@]12CC[C@@H](C)[C@H](C)[C@@H]1C1=CC[C@@H]3[C@@]4(C)CC(=O)[C@H](O)[C@@]5(C)COC(=C45)C[C@@]3(C)[C@]1(C)CC2`, for which the GI50 in experiment [1] was 20.4 µM; in experiment [2], 17.3 µM; in experiment [3], 19.5 µM; in [4], 17.9 µM; in experiment [5] it was 18.2 µM; in experiment [6], 17.9 µM. Besides, the GI50 in [7] is 16.9 µM; in experiment [8], 20.1 µM; in [9], 19.7 µM; in experiment [10], 19.2 µM. The TGI was 45.2 µM in [1]; 33.5 µM in experiment [2]; 40.9 µM in [3]; 33.5 µM in [4]; 32.8 µM in experiment [5]; 33.7 µM in [6]. Moreover, the TGI in [7] was 31.1 µM; in [8], 42.4 µM; in experiment [9], 43.5 µM; in experiment [10], 34.7 µM.

Consider `CC1(C)CC(=O)C2=C(C1)NC(SSC1=C(C#N)C(c3ccccc3)C3=C(CC(C)(C)CC3=O)N1)=C(C#N)C2c1ccccc1` (stereo not given), for which the GI50 in experiment [1] is 26.5 µg/mL; in [2], 27.6 µg/mL; in experiment [3], 33.7 µg/mL; in [4], 29.5 µg/mL; in experiment [5], 22.9 µg/mL; in experiment [6], 112 µg/mL. Moreover, the GI50 in experiment [7] is 72.3 µg/mL; in [8], 23.4 µg/mL; in experiment [9], 24.6 µg/mL; in experiment [10] it was 26.8 µg/mL. In addition, the TGI in [1] is 103 µg/mL; in experiment [2], 48.6 µg/mL; in experiment [3] it was 97.8 µg/mL; in experiment [4], 51.5 µg/mL; in [5], 59 µg/mL; in experiment [6], more than 150 µg/mL. For the same compound, the TGI in [7] was more than 150 µg/mL; in [8] it was 45.1 µg/mL; in [9] it was more than 150 µg/mL; in experiment [10], 48.2 µg/mL.

Take `O=C1C=C[C@]2(C[C@@H](c3cccc(C(F)(F)F)c3)O[C@@H](c3cccc(C(F)(F)F)c3)O2)O1`: the GI50 was 0.674 µM in [1]; 1.92 µM in experiment [2]; 1.88 µM in experiment [3]; 1.88 µM in experiment [4]; 14.4 µM in experiment [5]; 4.18 µM in experiment [6]. The GI50 in [7] is 5.08 µM; in experiment [8], 2.15 µM; in [9], 2.48 µM; in experiment [10] it was 2.12 µM. In addition, the TGI in [1] was 5.4 µM; in experiment [2], 4.82 µM; in [3], 8.34 µM; in [4], 5.51 µM; in experiment [5] it was 28.1 µM; in experiment [6], 17.2 µM. For the same compound, the TGI in experiment [7] is 18.2 µM; in experiment [8], 6.29 µM; in [9], 13.1 µM; in experiment [10], 5.52 µM.

Turning to `C[C@@H](c1ccc2nccn2c1)n1nnc2ncc(-c3cnn(C)c3)nc21`, the GI50 was 49.9 µM in experiment [1]; 91.7 µM in experiment [2]; more than 100 µM in [3]; more than 100 µM in experiment [4]; more than 100 µM in experiment [5]; 0.83 µM in [6]. In addition, the GI50 in experiment [7], in experiment [8], in experiment [9] and in experiment [10] was more than 100 µM throughout. In addition, the TGI in experiment [1], in [2], in experiment [3], in [4], in experiment [5] and in experiment [6] was more than 100 µM in each case. Also, the TGI in experiment [7], in [8], in experiment [9] and in experiment [10] was more than 100 µM throughout.

In the case of `COc1ccc(N(C)c2nc(C)nc3ccccc23)cc1`, the GI50 in [1], in [2], in experiment [3], in [4], in [5] and in experiment [6] was less than 0.01 µM each time. The GI50 in experiment [7], in experiment [8], in experiment [9] and in experiment [10] was less than 0.01 µM in each case. For the same compound, the TGI is more than 36.5 µM in [1]; 36.9 µM in [2]; less than 0.01 µM in experiment [3]; less than 0.01 µM in [4]; more than 26.1 µM in experiment [5]; more than 100 µM in [7]. Further, the TGI in experiment [8] and in experiment [9] was more than 100 µM in each case.

For `O=C(Nc1n[nH]c2nc(-c3ccco3)c(Br)cc12)C1CC1`, the GI50 is more than 25 µM in experiment [1]; more than 25 µM in experiment [2]; more than 25 µM in experiment [3]; more than 25 µM in [4]; 15.9 µM in experiment [5]; more than 25 µM in [6]. The GI50 in experiment [7] was more than 25 µM; in experiment [8], more than 25 µM; in experiment [9] it was more than 21.7 µM; in [10], more than 25 µM. In addition, the TGI in experiment [1], in [2], in experiment [3], in [4], in [5] and in [6] was more than 25 µM in each case. For the same compound, the TGI in [7], in [8], in [9] and in experiment [10] was more than 25 µM throughout.

`Nc1cccc2c1C(=O)N(C1CCC(=O)NC1=O)C2=O` (stereo not given): the GI50 in experiment [1], in experiment [2], in [3], in [4], in experiment [5] and in experiment [6] was more than 100 µM each time. Besides, the GI50 in experiment [7], in experiment [8], in [9] and in experiment [10] was more than 100 µM in each case. Further, the TGI in [1], in experiment [2], in [3], in experiment [4], in experiment [5] and in experiment [6] was more than 100 µM each time. The TGI in experiment [7], in experiment [8], in experiment [9] and in [10] was more than 100 µM throughout.

Turning to `O=S(=O)(c1ccc(NC(=S)N/N=C/c2ccccc2O)cc1)N1CCCCC1`, the TGI in experiment [1] is 3.58 µM; in experiment [2], more than 100 µM; in experiment [3], 7.12 µM; in experiment [4] it was 36.5 µM; in [5], 37.9 µM; in experiment [6], 3.45 µM. Besides, the TGI in experiment [7] is 4.45 µM; in experiment [8], more than 44.5 µM; in [9], 1.66 µM; in experiment [10], more than 68.8 µM. Also, the GI50 in experiment [3] is 0.351 µM.

For `COc1cc(-c2cc(C(=O)N3CCN(C(=O)c4ccccc4NCc4ccco4)CC3)nc3cc(-c4ccccc4)nn23)cc(OC)c1OC`, the GI50 was 0.523 µM in experiment [1]; 4.27 µM in [2]; 3.7 µM in experiment [3]; 1.48 µM in experiment [4]; 2.58 µM in [5]; 1.59 µM in experiment [6]. For the same compound, the GI50 in experiment [7] is 3.03 µM; in experiment [8] it was 5.11 µM; in experiment [9], 4.57 µM; in experiment [10], 1.56 µM. Also, the TGI was more than 100 µM in experiment [1]; more than 100 µM in experiment [2]; 30.6 µM in experiment [3]; 8.66 µM in [4]; 18.8 µM in experiment [5]; more than 93.1 µM in [6]. The TGI in experiment [7] was more than 100 µM; in experiment [8], more than 100 µM; in experiment [9], more than 100 µM; in experiment [10], 10.7 µM.

Regarding `COc1ccccc1C(=O)/C=C/c1cc2cccc(OC)c2[nH]c1=O`, the TGI was more than 51.3 µM in [1]; 1.37 µM in experiment [2]; 0.0583 µM in experiment [3]; 1.43 µM in [4]; 14.9 µM in experiment [5]; 3.85 µM in experiment [6]. The TGI in [7] was 4.9 µM; in [8], 1.79 µM; in [9] it was more than 37.9 µM; in experiment [10], 4.02 µM. The GI50 in experiment [2] is 0.112 µM; in experiment [3], 0.0144 µM; in experiment [4], 0.0481 µM; in [5], 0.554 µM; in [6], 0.0256 µM; in experiment [7] it was 0.0668 µM. In addition, the GI50 in experiment [8] is 0.151 µM; in experiment [9], less than 0.0182 µM; in experiment [10], less than 0.0131 µM.

Turning to `Nc1ccn(C=C=CCO)c(=O)n1`, the TGI was more than 1000 µM in experiment [1]; more than 1000 µM in experiment [2]; 435 µM in experiment [3]; more than 1000 µM in experiment [4]; more than 1000 µM in experiment [5]; more than 1000 µM in experiment [6]. Moreover, the TGI in [7], in experiment [8], in experiment [9] and in [10] was more than 1000 µM each time. Further, the GI50 in [2], in [4], in experiment [5], in experiment [6], in [7] and in experiment [8] was more than 1000 µM throughout. Also, the GI50 in experiment [10] is more than 1000 µM.

The values are drawn from PubChem BioAssay (NCI).
